According to US10239843B2 (CANCER RESEARCH TECHNOLOGY LIMITED, priority 2014, dated 2019):
Where two headings read alike, the source gives them in different places.

Experiments:
[1] = test system: PARG in HeLa cell line; assay: PARG cell assay (PAR chain immunofluorescence after MMS); type: cell-based; details: HeLa cells, MMS 50 μg/mL, read-out: PARG Cell IC50 Geomean
Method: This method is based on the detection of endogenous levels of poly (ADP) ribose chains present in the nucleus of HeLa cell line using indirect immunofluorescence. MMS stimulation increases PAR chains for up to 25 mins. After that point, PARG is active and breaks down the PAR chains, until by one hour after stimulation no PAR chains are detectable. Inhibition of PARG maintains PAR chains.
Briefly, following compound treatment and treatment with the DNA damaging agent methylmethanesulfonate (MMS), the cell monolayer is fixed, then permeabilised and incubated with a mouse monoclonal antibody raised against multimers of poly(ADP) ribose.
At the end of the 1 h dosing period, MMS was added to duplicates at a final concentration of 50 μg/mL, for a further hour.
Media was tipped off and the cells fixed with 50 μL ice-cold 95% MetOH/PBS for 15 mins at −20° C. Following a PBS wash, 50 μL PBS/0.1% Triton was added to the cells for 20 mins. Following another PBS wash, anti-PAR antibody (Calbiochem AM80) was diluted 1:4000 in a buffer (PBS+0.5% FBS+0.05% Tween20) and added to the cells and incubated overnight at 4° C.
Cells were washed three times with PBS and the plate sealed with a light-proof seal.

[2] = target: Human Full Length PARG (Homo sapiens (Human), UniProt Q86W56); assay: PARG enzyme assay (TR-FRET); type: biochemical; details: read-out: PARG Biochem IC50 Geomean
Sequence of Human Full Length PARG (Q86W56 whole entry): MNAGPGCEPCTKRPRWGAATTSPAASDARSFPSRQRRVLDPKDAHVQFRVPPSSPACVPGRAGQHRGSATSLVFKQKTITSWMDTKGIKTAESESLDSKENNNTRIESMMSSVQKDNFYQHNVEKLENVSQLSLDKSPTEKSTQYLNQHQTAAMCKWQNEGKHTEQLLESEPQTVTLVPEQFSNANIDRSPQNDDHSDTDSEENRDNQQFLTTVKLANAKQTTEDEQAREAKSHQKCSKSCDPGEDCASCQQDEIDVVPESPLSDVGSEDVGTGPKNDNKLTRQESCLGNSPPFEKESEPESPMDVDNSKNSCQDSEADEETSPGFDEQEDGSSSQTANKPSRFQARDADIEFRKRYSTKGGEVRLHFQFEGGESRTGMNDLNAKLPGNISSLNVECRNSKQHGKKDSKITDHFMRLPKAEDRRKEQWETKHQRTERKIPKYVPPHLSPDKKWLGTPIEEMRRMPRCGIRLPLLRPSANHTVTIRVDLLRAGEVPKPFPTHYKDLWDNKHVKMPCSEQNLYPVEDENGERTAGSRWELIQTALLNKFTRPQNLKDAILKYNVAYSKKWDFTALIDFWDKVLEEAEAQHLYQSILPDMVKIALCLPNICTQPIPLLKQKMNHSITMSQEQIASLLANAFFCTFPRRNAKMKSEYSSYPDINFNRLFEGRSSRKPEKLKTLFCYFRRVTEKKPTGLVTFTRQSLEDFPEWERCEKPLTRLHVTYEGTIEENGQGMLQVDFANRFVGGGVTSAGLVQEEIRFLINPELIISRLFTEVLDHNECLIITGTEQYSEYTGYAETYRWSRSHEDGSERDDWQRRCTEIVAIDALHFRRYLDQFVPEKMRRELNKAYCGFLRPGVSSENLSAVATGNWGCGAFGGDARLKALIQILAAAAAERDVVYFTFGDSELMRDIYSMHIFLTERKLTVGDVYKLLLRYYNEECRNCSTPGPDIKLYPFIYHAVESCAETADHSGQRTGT

| SMILES | IC50 ([1]; Homo sapiens) | IC50 [2] | IC50 [1] |
| --- | --- | --- | --- |
| Cc1ncc(Cn2c(=O)c3cc(S(=O)(=O)NC4(C)CC4)ccc3n(C)c2=O)s1 [Example 109] | 288 nM | 483 nM | – |
| Cc1noc(C)c1Cn1c(=O)c2cc(S(=O)(=O)NC3(C)CC3)ccc2n(C)c1=O [Example 115] | 386 nM | 616 nM | – |
| Cc1ncc(Cn2c(=O)n(C)c(=O)c3cc(S(=O)(=O)NC4(C)CC4)ccc32)s1 [Example 126] | 214 nM | 240 nM | – |
| Cc1cc(Cn2c(=O)n(C)c(=O)c3cc(S(=O)(=O)NC4(C)CC4)ccc32)n(C)n1 [Example 127] | 413 nM | 384 nM | – |
| Cn1c(=O)c2cc(S(=O)(=O)NC3(C)CC3)ccc2n(Cc2cncs2)c1=O [Example 143] | – | 342 nM | 538 nM |
| Cn1c(=O)c2cc(S(=O)(=O)NC3(C)CC3)ccc2n(Cc2cnc(Cl)s2)c1=O [Example 145] | 342 nM | 151 nM | – |
| Cn1nc(C(C)(C)C)cc1Cn1c(=O)n(C)c(=O)c2cc(S(=O)(=O)NC3(C)CC3)ccc21 [Example 149] | 518 nM | 293 nM | – |
| Cn1cc(Cn2c(=O)n(C)c(=O)c3cc(S(=O)(=O)NC4(C)CC4)ccc32)cn1 [Example 152] | 520 nM | 463 nM | – |
| Cc1ncc(Cn2c(OCC3CC3)nc3ccc(S(=O)(=O)NC4(C)CC4)cc3c2=O)s1 [Example 157] | 138 nM | 302 nM | – |
| C#CCn1c(=O)n(Cc2c(C)noc2C)c(=O)c2cc(S(=O)(=O)NC3(C)CC3)ccc21 [Example 159] | 153 nM | 109 nM | – |
| Cc1cc(COc2nc3ccc(S(=O)(=O)NC4(C)CC4)cc3c(=O)n2Cc2cnc(C)s2)n(C)n1 [Example 164] | – | 343 nM | 782 nM |
| Cc1cc(Cn2c(=O)n(Cc3c(C)noc3C)c(=O)c3cc(S(=O)(=O)NC4(C)CC4)ccc32)n(C)n1 [Example 166] | 229 nM | 131 nM | – |
| Cc1noc(C)c1Cn1c(=O)c2cc(S(=O)(=O)NC3(C)CC3)ccc2n(Cc2ccc(F)cc2)c1=O [Example 168] | 146 nM | 160 nM | – |
| COc1cccc(Cn2c(=O)n(Cc3c(C)noc3C)c(=O)c3cc(S(=O)(=O)NC4(C)CC4)ccc32)c1 [Example 169] | – | 294 nM | 288 nM |
| Cc1nc(C)c(Cn2c(=O)n(Cc3cnn(C)c3)c(=O)c3cc(S(=O)(=O)NC4(C)CC4)ccc32)s1 [Example 170] | 20 nM | 6 nM | – |
| Cn1cc(Cn2c(=O)c3cc(S(=O)(=O)NC4(C)CC4)ccc3n(Cc3ccc(F)cc3)c2=O)cn1 [Example 171] | 103 nM | 49 nM | – |
| COc1cccc(Cn2c(=O)n(Cc3cnn(C)c3)c(=O)c3cc(S(=O)(=O)NC4(C)CC4)ccc32)c1 [Example 172] | – | 100 nM | 193 nM |
| Cc1ncc(Cn2c(=O)c3cc(S(=O)(=O)NC4(C)CC4)ccc3n(Cc3ccc(F)cc3)c2=O)s1 [Example 176] | 85 nM | 89 nM | – |
| C#CCn1c(=O)n(Cc2cnn(C)c2)c(=O)c2cc(S(=O)(=O)NC3(C)CC3)ccc21 [Example 178] | 126 nM | 52 nM | – |
| CCn1cc(Cn2c(=O)c3cc(S(=O)(=O)NC4(C)CC4)ccc3n(C)c2=O)cn1 [Example 181] | 680 nM | 447 nM | – |
| Cn1c(=O)n(Cc2cn[nH]c2)c(=O)c2cc(S(=O)(=O)NC3(C)CC3)ccc21 [Example 183, 1-methyl-N-(1-methylcyclopropyl)-2,4-dioxo-3-(1H-pyrazol-4-ylmethyl)quinazoline-6-sulfonamide] | 931 nM | 379 nM | – |
| CC1(NS(=O)(=O)c2ccc3c(c2)c(=O)n(CC#N)c(=O)n3Cc2ccc(F)cc2)CC1 [Example 186] | 307 nM | 441 nM | – |
| COc1cccc(Cn2c(=O)n(CC#N)c(=O)c3cc(S(=O)(=O)NC4(C)CC4)ccc32)c1 [Example 187] | 343 nM | 467 nM | – |

| SMILES | IC50 ([1]; Homo sapiens) | IC50 [2] | IC50 [1] |
| --- | --- | --- | --- |
| Cc1cc(Cn2c(=O)n(CC#N)c(=O)c3cc(S(=O)(=O)NC4(C)CC4)ccc32)n(C)n1 [Example 192] | – | 274 nM | 1100 nM |
| CC1(NS(=O)(=O)c2ccc3c(c2)c(=O)n(CC#N)c(=O)n3CC2CC2)CC1 [Example 193] | 556 nM | 277 nM | – |
| C#CCn1c(=O)n(CC#N)c(=O)c2cc(S(=O)(=O)NC3(C)CC3)ccc21 [Example 194] | – | 245 nM | 273 nM |
| Cc1cc(Cn2c(=O)c3cc(S(=O)(=O)NC4(C)CC4)ccc3n(CC3CC3)c2=O)on1 [Example 197] | 49 nM | 55 nM | – |
| C#CCn1c(=O)n(Cc2cc(C)no2)c(=O)c2cc(S(=O)(=O)NC3(C)CC3)ccc21 [Example 198] | 76 nM | 105 nM | – |
| Cc1cc(Cn2c(=O)c3cc(S(=O)(=O)NC4(C)CC4)ccc3n(Cc3ccc(F)cc3)c2=O)on1 [Example 199] | – | 92 nM | 99 nM |
| COc1cccc(Cn2c(=O)n(Cc3cc(C)no3)c(=O)c3cc(S(=O)(=O)NC4(C)CC4)ccc32)c1 [Example 200] | 223 nM | 250 nM | – |
| Cc1nc(C)c(Cn2c(=O)n(C)c(=O)c3cc(S(=O)(=O)NC4CC4)ccc32)s1 [Example 201] | 224 nM | 190 nM | – |
| Cc1nc(C)c(Cn2c(=O)n(C)c(=O)c3cc(S(=O)(=O)NC4(C#N)CC4)ccc32)s1 [Example 204] | 646 nM | 118 nM | – |
| Cc1cc(Cn2c(=O)c3cc(S(=O)(=O)NC4(C)CC4)ccc3n(Cc3cc(C)nn3C)c2=O)on1 [Example 207] | – | 38 nM | 116 nM |
| Cc1cc(Cn2c(=O)c3cc(S(=O)(=O)NC4(C)CC4)ccc3n(Cc3cc(C)no3)c2=O)on1 [Example 208] | 69 nM | 36 nM | – |
| Cc1cc(Cn2c(=O)n(C)c(=O)c3cc(S(=O)(=O)NC4(C)CC4)c(F)cc32)n(C)n1 [Example 213] | 787 nM | 473 nM | – |
| Cn1c(=O)n(Cc2cnc(NC(=O)OC(C)(C)C)s2)c(=O)c2cc(S(=O)(=O)NC3(C)CC3)ccc21 [Example 214] | – | 411 nM | 3470 nM |
| Cn1c(=O)n(Cc2cnn(CC#N)c2)c(=O)c2cc(S(=O)(=O)NC3(C)CC3)ccc21 [Example 217] | 529 nM | 365 nM | – |
| Cc1ncc(Cn2c(=O)[nH]c3ccc(S(=O)(=O)NC4(C)CC4)cc3c2=O)s1 [Example 220, N-(1-Methylcyclopropyl)-3-[(2-methylthiazol-5-yl)methyl]-2,4-dioxo-1H-quinazoline-6-sulfonamide] | 481 nM | 273 nM | – |
| Cc1cc(Cn2c(=O)[nH]c3ccc(S(=O)(=O)NC4(C#N)CC4)cc3c2=O)on1 [Example 228, N-(1-Cyanocyclopropyl)-3-[(3-methylisoxazol-5-yl)methyl]-2,4-dioxo-1H-quinazoline-6-sulfonamide] | – | 356 nM | 15200 nM |
| Cc1cc(Cn2c(=O)c3cc(S(=O)(=O)NC4(C#N)CC4)ccc3n(C)c2=O)on1 [Example 229] | 1470 nM | 446 nM | – |
| Cc1cc(Cn2c(=O)c3cc(S(=O)(=O)NC4(C)CC4)ccc3n(Cc3cc(C(F)(F)F)nn3C)c2=O)on1 [Example 230] | – | 127 nM | 213 nM |
| Cc1ncc(Cn2c(=O)c3cc(S(=O)(=O)NC4(C)CC4)ccc3n(Cc3cc(C(F)(F)F)nn3C)c2=O)s1 [Example 231] | 47 nM | 55 nM | – |
| CN(C)CCn1c(=O)n(Cc2cnn(C)c2)c(=O)c2cc(S(=O)(=O)NC3(C)CC3)ccc21 [Example 235] | – | 224 nM | 314 nM |
| CN(C)CCCn1c(=O)n(Cc2cnn(C)c2)c(=O)c2cc(S(=O)(=O)NC3(C)CC3)ccc21 [Example 237] | 285 nM | 232 nM | – |
| CN1CCCCC1Cn1c(=O)n(Cc2cnn(C)c2)c(=O)c2cc(S(=O)(=O)NC3(C)CC3)ccc21 (centres unmarked) [Example 238] | 220 nM | 158 nM | – |
| COCCCn1c(=O)n(Cc2cnn(C)c2)c(=O)c2cc(S(=O)(=O)NC3(C)CC3)ccc21 [Example 239] | – | 209 nM | 127 nM |
